Measured values taken from patent US6153587A, “Conformationally constrained LH-RH analogues, their uses and pharmaceutical compositions containing them” (Laboratoire THERAMEX, priority 1996, dated 2000).
“And” between values parts separate entries of the source, which are not always exact repeats. Identical values can stand only once. Like-named read-outs stand apart in the source and are kept apart here.

Key:
LH-RH receptors [1] = molecular target: T1, LH-RH receptors (Rattus norvegicus, UniProt P30969); assay: Induction of ovulation in pentobarbital-blocked female Wistar rats; assay type: in vivo; conditions: subcutaneous
T1 construct: from tissue; host or cells: rat pituitary membrane fraction (female Sprague Dawley)
T1 sequence (P30969 1-327): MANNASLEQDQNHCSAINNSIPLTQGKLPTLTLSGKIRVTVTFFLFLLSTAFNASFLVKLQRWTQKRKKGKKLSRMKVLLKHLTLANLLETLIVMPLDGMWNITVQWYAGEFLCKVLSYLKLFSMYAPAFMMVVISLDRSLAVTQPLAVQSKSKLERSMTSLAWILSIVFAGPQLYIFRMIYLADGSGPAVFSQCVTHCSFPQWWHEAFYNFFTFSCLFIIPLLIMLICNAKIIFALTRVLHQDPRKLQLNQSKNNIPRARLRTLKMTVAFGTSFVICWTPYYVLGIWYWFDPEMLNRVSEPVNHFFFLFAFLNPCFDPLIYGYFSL
Method: (§1) The peptides according to the general formula (IIa) exert an agonist activity upon the LH-RH receptors in vivo, resulting in the induction of ovulation in the female and in the stimulation of testosterone secretion in the male following acute subcutaneous administration.
Adult female Wistar rats are first monitored for normal estrous cyclicity by daily vaginal smears. After at least 2 regular 4-day cycles, they all receive an intraperitoneal injection of 50 mg/kg of sodium pentobarbital around 2:00 PM on the day of proestrus, which blocks the spontaneous ovulation in the negative control animals receiving in addition only the subcutaneous vehicle (PBS: phosphate buffered saline, 0.05 M, pH 7.4 containing 0.1% bovine serum albumin). At the same time, test animals are injected subcutaneously with LH-RH, standard LH-RH agonists or examples according to the formula (Ha), at various doses in solution in the vehicle described above. The following morning, the oviducts are excised and carefully dissected to search for ovocytes. None are found in the negative pentobarbital-blocked animals.
If effective, LH-RH agonists induce ovulation during the night between proestrus and estrus. The percentage of ovulating female rats, defined by the presence of at least one ovocyte in one of the two oviducts, is plotted as a function of the injected dose.

LH-RH receptors [2] = molecular target: T1, LH-RH receptors; assay: Total plasma testosterone in male Sprague-Dawley rats after subcutaneous injection; assay type: in vivo; conditions: 30 nanograms/kg subcutaneous, plasma at two hours, male Sprague-Dawley rats
Method: as §1
Adult male Sprague-Dawley rats are treated by a subcutaneous injection of LH-RH agonists at the same dose of 30 nanograms/kg dissolved in PBS. Two hours later, blood samples are drawn for total plasma testosterone measurement by direct radioimmunoassay (Immunotech). At this dose, LH-RH itself is not active standard LH-RH agonists and selected examples according to formula (Ila) are compared in Table 3 below: […]

LH-RH receptors [3] = molecular target: T1, LH-RH receptors; assay: Affinity for LH-RH receptors: [125I]-buserelin binding to rat pituitary membranes; conditions: for Ki: 2 hours at 4° C., Ki from IC50 by Cheng-Prusoff
Method: This affinity has been determined according to the following method:
Pituitaries from female Sprague Dawley rats were removed and homogenized with a Potter homogenizer in a 25 mM HEPES buffer (pH 7.4) containing 0.32 M sucrose, 100 μg/l PMSF (phenylmethylsulfonylfluoride), 5.6 U/l aprotinin and 10,000 U/l bacitracin. The homogenates were centrifuged at 700 g for 10 minutes and the supernatants were further centrifuged at 12,500 g for 30 minutes. The pellets were homogenized and centrifuged as described above, in the same buffer but without sucrose.
All homogenization, centrifugation and subsequent incubation steps were carried out at 4° C.
The assay was terminated by filtration under suction (Brandel 96-well harvester) through Whatman GF/B glass fiber filters. […] Each compound was tested in at least 4 experiments.
Specific binding data were analysed according to Scatchard's method.
For each test compound, the inhibitory constant (Ki) was calculated from its IC50 according to the Cheng and Prussofs equation: Ki=IC50 /(1+[radioligand]/Kd). Ki was then transformed into pKi (=-log Ki) for final expression of affinity scales.

SMILES | ED50 (dose producing 50% of ovulation) (LH-RH receptors [1]) [nanograms/rat] | Total testosterone (LH-RH receptors [2]) [ng/mL] | Ki (LH-RH receptors [3]; 20 to 70 μM [125I]-buserelin, read-out: pKi (affinity for LH-RH receptors) (converted)) | IC50 range in words (LH-RH receptors [3]; [125I]-buserelin) | Ki (LH-RH receptors [3]; pKi (affinity for LH-RH receptors), [125I]-buserelin) [nM]
CC(C)C[C@H](NC(=O)[C@@H](Cc1c[nH]c2ccccc12)NC(=O)[C@H](Cc1ccc(O)cc1)NC(=O)[C@H](CO)NC(=O)[C@H](Cc1c[nH]c2ccccc12)NC(=O)[C@H](Cc1c[nH]cn1)NC(=O)[C@@H]1CCC(=O)N1)C(=O)N[C@@H](CCCNC(=N)N)C(=O)N1CCC[C@H]1C(=O)NCC(N)=O [Tryptorelin] | 2.9 | 12.1 ± 0.7 | < 1 nM and 0.141 nM | subnanomolar range | 
CC(C)C[C@H](NC(=O)[C@@H](COC(C)(C)C)NC(=O)[C@H](Cc1ccc(O)cc1)NC(=O)[C@H](CO)NC(=O)[C@H](Cc1c[nH]c2ccccc12)NC(=O)[C@H](Cc1cnc[nH]1)NC(=O)[C@@H]1CCC(=O)N1)C(=O)N[C@@H](CCCNC(=N)N)C(=O)N1CCC[C@H]1C(=O)NNC(N)=O [Goserelin] | 4.3 | 15.0 ± 2.5 |  |  | 2.63
